Assay results published in patent US20200377459A1, “CHARGED ION CHANNEL BLOCKERS AND METHODS FOR USE” (President and Fellows of Harvard College, priority 2015, published 2020).
Entries after “also recorded” stand apart in the source; their conditions may differ.

Key:
[1] = system: allergic airway inflammation induced by Ovalbumin; experiment: Ovalbumin allergic airway inflammation, BALF immune cell counts; type: in vivo; conditions: OVA-exposed mice, aerosolized 100 μM on day 18, read day 21
Protocol: FIG. 5A-5E are results showing that lung sensory neuron silencing with N-ethyl-etidocaine (Compound 21) reduces allergic airway inflammation. OVA-exposed mice (day 21) develop increases in BALF total (FIG. 5A), and CD45+ cells (FIG. 5B), including eosinophil (FIG. 5C), macrophage (FIG. 5D) and T-cell (FIG. 5E) counts. In comparison to vehicle treatment, the silencing of sensory neurons using aerosolized QX-314 (100 μM, hollow square) or N-ethyl-etidocaine (Compound 21) (100 μM, dark square) decreased these levels. […] Data expressed as mean S.E.M; Two-tailed unpaired Student's t-test (n=8-16 animals/group; 1-2 cohorts). […]
Allergic airway inflammation was studied in an ovalbumin (OVA) based model. […] Drugs were nebulized on day 18 (10:00 am) and inflammation (BALF cell content)/airway hyper-responsiveness were assessed on day 21 (10:00 am). […]
Bronchoalveolar lavage fluid (BALF) cells were re-suspended in FACS buffer (PBS, 2% FCS, EDTA), and incubated with Fc block (0.5 mg/ml, 10 min; BD Biosciences). […] A leukocyte differential count was determined during flow cytometry analysis of cells expressing the common leukocyte antigen CD45 (BD Pharmigen; cat no: 553079). […] Total BAL cell counts were performed using a standard hemocytometer, with absolute cell numbers calculated as total BAL cell number multiplied by the percentage of cell subpopulation as determined by FACS.

[2] = system: CFA-induced thermal hyperalgesia; experiment: CFA-induced thermal hyperalgesia (Hargreaves radiant heat, hind paw); type: in vivo; conditions: mice, intraplantar co-injection with CFA, 1%
Protocol: FIGS. 2A-2D show reversal of CFA-induced thermal hyperalgesia by charged sodium channel blockers. FIGS. 2A and 2C show time course (0, 1, 6, and 24 hours) of changes in thermal nociceptive sensitivity measured as response latency (seconds) to a constant radiant heat source applied to the plantar surface of hind paw in mice co-treated with 20 μL (injected in the left hindpaw) of CFA (50% emulsion) and saline, and when the CFA was co-applied with QX-314 (1%, hollow square), N-ethyl etidocaine (Compound 21, 1%; dark square), or ACS8180-3B (Compound 3, 1%; solid triangle). FIGS. 2B and 2D show the nociceptive heat pain response time before CFA treatment and after treatment with the different compounds 1 hour post CFA injection. The data are means±SEM of 8-16 mice per group. The statistical comparison with pre-CFA (*) and with CFA+Vehicle (+) is indicated by +P<0.05; ++P<0.01 and +++,*** P<0.001. All procedures were approved by the Institutional Animal Care and Use Committees. Mice and rats were housed in standard environmental conditions (12-h light/dark cycle; 23° C.; food and water ad libitum) at facilities accredited by the Association for Assessment and Accreditation of Laboratory Animal Care. 8-week old male BALB/c (stock number: 001026) and C57BL/6J (stock number 000664) mice were purchased from Jackson Laboratory and respectively used in allergic airway inflammation (FIG. 5) and pain hypersensitivity model (FIGS. 2A-2D). 6-week old male Sprague-Dawley (stock number: 400) rats, 150±25 grams, were purchased from Charles River laboratory and used to assess pain hypersensitivity (FIG. 3). The compounds were injected in the plantar surface of each animal's right hind paw in 10 μl (mice) or 50 μl (rats) volume of 1:1 emulsion of Complete Freund's Adjuvant (CFA). […] On the 4th day, their thermal nociceptive threshold was evaluated. […] Impact of treatment was analyzed 1 h prior and 1, 3, 6 and 24 h post-treatment. […] With each reading the apparatus was set with a cut-off time of 32 s.

| Compound | BALF immune cell levels (total, CD45+, eosinophil, macrophage, T-cell) [1] | reversal of CFA-induced thermal hyperalgesia [2] |
| --- | --- | --- |
| CCC[N+](CC)(CC)C(CC)C(=O)Nc1c(C)cccc1C (stereo not shown) [Compound 21, N-ethyl etidocaine] | blocked; also recorded: potently reversed; also recorded: decreased; also recorded: tendency toward a greater decrease in comparison to QX-314 | reversed; also recorded: potent blockade |
| CC[N+](CC)(CC)CC(=O)Nc1c(C)cccc1C [QX-314, reference compound] | decreased | reversed |
